Source: PubChem BioAssay AID1259407 (Chemical Carcinogenesis Research Information System (CCRIS), 2018)
Activity calls are given as the source filed them. No rule for the calls is given here.

Tested on: CCRIS mutagenicity, Ames/micronucleus/aberration tests
Experiment: CCRIS mutagenicity studies
Conditions: Test System: AMES SALMONELLA TYPHIMURIUM

CC(C)(OOC(C)(C)c1ccccc1)c1ccccc1
mutagenic call (Strain/Indicator: TA97, Metabolic Activation: HAMSTER, LIVER, S-9, AROCLOR 1254 (10 OR 30%), Method: PREINCUBATION): inactive; negative
mutagenic call (Strain/Indicator: TA97, Metabolic Activation: NONE, Method: PREINCUBATION): inactive; negative
mutagenic call (Strain/Indicator: TA97, Metabolic Activation: RAT, LIVER, S-9, AROCLOR 1254 (10 OR 30%), Method: PREINCUBATION): inactive; negative
mutagenic call (Strain/Indicator: TA97A, Metabolic Activation: MOUSE LIVER S-9, AROCLOR 1254, Method: PREINCUBATION): inactive; negative
mutagenic call (Strain/Indicator: TA97A, Metabolic Activation: NONE, Method: PREINCUBATION): inactive; negative
mutagenic call (Strain/Indicator: TA97A, Metabolic Activation: RAT LIVER S-9, AROCLOR 1254, Method: PREINCUBATION): inactive; negative
mutagenic call (Strain/Indicator: TA98, Metabolic Activation: HAMSTER, LIVER, S-9, AROCLOR 1254 (10 OR 30%), Method: PREINCUBATION): inactive; negative
mutagenic call (Strain/Indicator: TA98, Metabolic Activation: NONE, Method: FLUCTUATION (MICROTITER)): inactive; negative
mutagenic call (Strain/Indicator: TA98, Metabolic Activation: NONE, Method: PREINCUBATION): inactive; negative
mutagenic call (Strain/Indicator: TA98, Metabolic Activation: RAT LIVER S-9, AROCLOR 1254, Method: FLUCTUATION (MICROTITER)): inactive; negative
mutagenic call (Strain/Indicator: TA98, Metabolic Activation: RAT, LIVER, S-9, AROCLOR 1254 (10 OR 30%), Method: PREINCUBATION): inactive; negative
mutagenic call (Strain/Indicator: TA100, Metabolic Activation: HAMSTER, LIVER, S-9, AROCLOR 1254 (10 OR 30%), Method: PREINCUBATION): inactive; negative
mutagenic call (Strain/Indicator: TA100, Metabolic Activation: MOUSE LIVER S-9, AROCLOR 1254, Method: PREINCUBATION): inactive; negative
mutagenic call (Strain/Indicator: TA100, Metabolic Activation: NONE, Method: PREINCUBATION): inactive; negative
mutagenic call (Strain/Indicator: TA100, Metabolic Activation: RAT LIVER S-9, AROCLOR 1254, Method: PREINCUBATION): inactive; negative
mutagenic call (Strain/Indicator: TA100, Metabolic Activation: RAT, LIVER, S-9, AROCLOR 1254 (10 OR 30%), Method: PREINCUBATION): inactive; negative
mutagenic call (Strain/Indicator: TA102, Metabolic Activation: NONE, Method: PREINCUBATION): inactive; negative
mutagenic call (Strain/Indicator: TA102, Metabolic Activation: RAT LIVER S-9, AROCLOR 1254, Method: PREINCUBATION): inactive; negative
mutagenic call (Strain/Indicator: TA104, Metabolic Activation: MOUSE LIVER S-9, AROCLOR 1254, Method: PREINCUBATION): inactive; negative
mutagenic call (Strain/Indicator: TA104, Metabolic Activation: NONE, Method: PREINCUBATION): inactive; negative
mutagenic call (Strain/Indicator: TA104, Metabolic Activation: RAT LIVER S-9, AROCLOR 1254, Method: PREINCUBATION): inactive; negative
mutagenic call (Strain/Indicator: TA1535, Metabolic Activation: HAMSTER, LIVER, S-9, AROCLOR 1254 (10 OR 30%), Method: PREINCUBATION): inactive; negative
mutagenic call (Strain/Indicator: TA1535, Metabolic Activation: NONE, Method: PREINCUBATION): inactive; negative
mutagenic call (Strain/Indicator: TA1535, Metabolic Activation: RAT, LIVER, S-9, AROCLOR 1254 (10 OR 30%), Method: PREINCUBATION): inactive; negative
mutagenic call (Strain/Indicator: TA1537, Metabolic Activation: NONE, Method: FLUCTUATION (MICROTITER)): inactive; negative
mutagenic call (Strain/Indicator: TA1537, Metabolic Activation: RAT LIVER S-9, AROCLOR 1254, Method: FLUCTUATION (MICROTITER)): inactive; negative
mutagenic call (Strain/Indicator: TA7001, Metabolic Activation: NONE, Method: FLUCTUATION (MICROTITER)): inactive; negative
mutagenic call (Strain/Indicator: TA7001, Metabolic Activation: RAT LIVER S-9, AROCLOR 1254, Method: FLUCTUATION (MICROTITER)): inactive; negative
mutagenic call (Strain/Indicator: TA7002, Metabolic Activation: NONE, Method: FLUCTUATION (MICROTITER)): inactive; negative
mutagenic call (Strain/Indicator: TA7002, Metabolic Activation: RAT LIVER S-9, AROCLOR 1254, Method: FLUCTUATION (MICROTITER)): inactive; negative
mutagenic call (Strain/Indicator: TA7003, Metabolic Activation: NONE, Method: FLUCTUATION (MICROTITER)): inactive; negative
mutagenic call (Strain/Indicator: TA7003, Metabolic Activation: RAT LIVER S-9, AROCLOR 1254, Method: FLUCTUATION (MICROTITER)): inactive; negative
mutagenic call (Strain/Indicator: TA7004, Metabolic Activation: NONE, Method: FLUCTUATION (MICROTITER)): inactive; negative
mutagenic call (Strain/Indicator: TA7004, Metabolic Activation: RAT LIVER S-9, AROCLOR 1254, Method: FLUCTUATION (MICROTITER)): inactive; negative
mutagenic call (Strain/Indicator: TA7005, Metabolic Activation: NONE, Method: FLUCTUATION (MICROTITER)): inactive; negative
mutagenic call (Strain/Indicator: TA7005, Metabolic Activation: RAT LIVER S-9, AROCLOR 1254, Method: FLUCTUATION (MICROTITER)): inactive; negative
mutagenic call (Strain/Indicator: TA7006, Metabolic Activation: NONE, Method: FLUCTUATION (MICROTITER)): inactive; negative
mutagenic call (Strain/Indicator: TA7006, Metabolic Activation: RAT LIVER S-9, AROCLOR 1254, Method: FLUCTUATION (MICROTITER)): inactive; negative

COc1cccc(NC(=O)c2csc([N+](=O)[O-])c2)c1
mutagenic call (Strain/Indicator: TA98, Metabolic Activation: NONE, Method: STANDARD PLATE): active; positive
mutagenic call (Strain/Indicator: TA100, Metabolic Activation: NONE, Method: STANDARD PLATE): active; positive
